One test has as its target WDR5 (Homo sapiens, UniProt P61964). Kind of test: WDR5 HTRF binding assay. The following applies: read-out: (a) WDR5 HTRF Pep Val v.1[Inhibitor/IC50]Qualified AC50. As for the experimental part:
The compounds were serially diluted 3-fold in DMSO to obtain a total of twelve concentrations. Then the test compounds at each concentration (90 nL of each) were transferred by Mosquito in the white Proxiplate plus 384-well microplate (Perkin Elmer). The assay mixture (typical 9 μL) containing 6 nM WDR5 and 20 nM Biotin-MLL1 WIN peptide (3762-3773) in the assay buffer (25 mM Hepes, pH7.5, 0.05% Tween 20, 2 mM DTT, 100 mM NaCl, 0.1% BSA) were added to the wells. For counter assay, a 9 μL solution of 15 nM Biotin-PEG-His peptide was added into the wells. After 20 min incubation at rt, a 3 μL detection solution containing 14 μg/ml Phycolink Streptavidin Allophycocyanin (Prozyme), 2 nM Anti-His-Eu (PerkinElmer) in assay buffer was then added. After 1 hr incubation, the plate was read in the EnVision reader (PerkinElmer) using the HTRF protocol (The protocol set-up: Lance/Delfia dual enhancer mirror, excitation at 320 UV2 (TRF), emission at APC665, 2nd emission at EuropiμM 615). HTRF signals were normalized based on the reading coming from the positive (maximum signal control) and negative controls (minimum signal control) to give percentage of activities left. The data were then fit to a dose response equation using the program Helios (Novartis) to get the IC50 values. Helios is a Novartis in-house assay data analysis software using the methods described by Normolle, D. P., Statistics in Medicine, 12:2025-2042 (1993); Formenko, I. et al., Computer Methods and programs in Biomedicine, 82, 31-37 (2006); Sebaugh, J. L., Pharmaceutical Statistics, 10:128-134 (2011); Kelly, C. et al., Biometrics, 46(4):1071-1085 (1990); and Kahm, M, et al., Journal of Statistical Software, 33(7):(2010) (grofit: Fitting Biological Growth Curves with R, pages 1-21, available at http://www.jstatsoft.org/).
On the technique in general: In TR-FRET formats the signal depends on donor and acceptor labels being close together.

Test [1] concerns the target wild type MLL1 four-member complex (MLL1-4C) (Homo sapiens, UniProt P61964). The test can be described thus: MLL1 LC-MS assay (SAH production). The following applies: read-out: (b) MLL LCMS Peptide Val.v.1 Qualified AC50. It counts as biochemical. As for the experimental part: The compounds of the present disclosure were serially and separately diluted 3-fold in DMSO to obtain a total of eight or twelve concentrations. Then the test compounds at each concentration (120 nL of each) were transferred by Mosquito into white Proxiplate plus 384-well microplate (PerkinElmer). Solutions (6 μL) of 60 nM wild type MLL1 four-member complex (MLL1-4C) and 5 μM SAM in the reaction buffer (20 mM Tris-HCl, pH8.0, 0.01% Tween 20, 1 mM DTT, 10 mM MgCl2, 0.01% BSA) were added to the wells that were then incubated with the test compound for 20 min. A 6 μL solution of 20 μM of the peptide substrate H3K4me0 (histone H3[1-21]-Biotin) in the reaction buffer was added to initiate each reaction. The final components in the reaction solution include 30 nM MLL1-4C, 2.5 μM SAM, and 10 μM H3K4me0 with varying concentration of the compounds. A positive control consisted of 30 nM MLL1-4C, 2.5 μM SAM, and 10 μM substrate in the absence of the test compound, and a negative control consisted of 2.5 μM SAM, and 10 μM substrate only. Each reaction was incubated at rt for 120 min, then stopped by addition of 3 μL per of quench solution (2.5% TFA with 320 nM d4-SAH). The reaction mixture was centrifuged (Eppendorf centrifuge 5810, Rotor A-4-62) for 2 min at 2000 rmp. The SAH production from the enzymatic assays were monitored by LC-MS/MS on an API 4000 triple quadrupole mass spec with Turbolon Spray (Applied Biosystem) coupled with Prominenece UFLC (Shimazu). The level of SAH production were then normalized based on the values coming from the positive and negative controls to give percent enzyme activities. The data were then fit to a dose response equation using the program Helios (Novartis) to get the IC50 values of the test compound. Helios is a Novartis in-house assay data analysis software using the methods described by Normolle, D. P., Statistics in Medicine, 12:2025-2042 (1993); Formenko, I. et al., Computer Methods and programs in Biomedicine, 82, 31-37 (2006); Sebaugh, J. L., Pharmaceutical Statistics, 10:128-134 (2011); Kelly, C. et al., Biometrics, 46(4):1071-1085 (1990); and Kahm, M, et al., Journal of Statistical Software, 33(7):(2010) (grofit: Fitting Biological Growth Curves with R, pages 1-21, available at http://www.jstatsoft.org/).

The next test relates to MV4-11 cells. The test can be described thus: MV4-11 6-day cell growth CTG (CellTiter-Glo) assay. The following applies: Homo sapiens, MV4-11, 144 h, 6 days, read-out: (c) MLL/WDR5 cell proliferation assay//MLL/WDR5 proliferation MV4:11 Qualified AC50. Type of test: cell-based. As for the experimental part: MV4-11 6-Day Cell Growth CTG (CellTiter-Glo) Assay
Acute myeloid leukemia cell MV4-11 (ATCC® CRL-9591™) was cultured with RPMI 1640 medium (Thermo Fisher Scientific, cat #11875) supplemented with 10% FBS (Thermo Fisher Scientific, cat #10099141) in humidified incubator at 37° C., 5% CO2. To assess the effect of WDR5 inhibitor on cell growth, the compound of the present invention was dissolved in DMSO and serially diluted at 1:3 for 12 points starting from 10 mM then 200 nL for the replicate of each dose per well was dispensed to Viewplate-384 Black (Perkin Elmer). Exponentially growing MV4-11 cells were seeded at the density of 300 cells per well in 40 μL to the plate, so the final compound working concentration starts from 50 μM. After 6 days, 40 μL CellTiter-Glo (Promega, cat #G7573) was added into the cell culture well and luminescence was read with Envision (Perkin Elmer) to determine the viable cells. The percentage inhibition was calculated against the samples treated with DMSO only and the data were used for dose response curve fitting in GraphPad Prism to get the IC50 of representative compound of present invention, which reflects the inhibition of WDR5 activity in the proliferation of MV4;11.
(In general: Cellular ATP, detected with luciferase, serves as a proxy for viable cell number.)

As for `CCOc1cc(CN2CCc3c(cc(CCN(C)CC)cc3-c3cc(C)nnc3C)C2=O)ncc1C` [Example 212, 5-(3,6-dimethylpyridazin-4-yl)-2-((4-ethoxy-5-methylpyridin-2-yl)methyl)-7-(2-(ethyl(methyl)amino)ethyl)-3,4-dihydroisoquinolin-1(2H)-one], the IC50 on WDR5 was under 10 nM. For the same compound, the AC50 (in test [1]; with MV4-11 cells) was 10 to 1000 nM throughout.

`CCOc1cc([C@H](C)N2CCc3c(cc(CCN(C)CC)cc3-c3ccn(C)c(=O)c3C)C2=O)ncc1C#N` [Example 161, (S)-6-(1-(5-(1,3-dimethyl-2-oxo-1,2-dihydropyridin-4-yl)-7-(2-(ethyl(methyl)amino)ethyl)-1-oxo-3,4-dihydroisoquinolin-2(1H)-yl)ethyl)-4-ethoxynicotinonitrile]: the IC50 at WDR5 was under 10 nM. Moreover, the AC50 (in test [1]; in the test with MV4-11 cells) was 10 to 1000 nM each time.

On to `CCOc1cc([C@H](C)N2CCc3c(cc(CCN(C)CC)cc3-c3cc(OC)cnc3C)C2=O)ncc1C#N` [Example 167, (S)-4-ethoxy-6-(1-(7-(2-(ethyl(methyl)amino)ethyl)-5-(5-methoxy-2-methylpyridin-3-yl)-1-oxo-3,4-dihydroisoquinolin-2(1H)-yl)ethyl)nicotinonitrile], for which, on WDR5, the IC50 is under 10 nM. In addition, the AC50 (in test [1]; in the test with MV4-11 cells) was 10 to 1000 nM in each case.

For `CNc1nccn1Cc1cc(CN2CC(F)C2)c2c(c1)C(=O)N([C@@H](C)c1cc(OC)c(F)cn1)CC2` [Example 42], at WDR5, the IC50 is 10 to 1000 nM. In addition, the AC50 (in test [1]; with MV4-11 cells) was 10 to 1000 nM each time.

In the case of `CNc1nccn1Cc1cc(CN2CC(F)C2)c2c(c1)C(=O)N(Cc1cc(OC)c(F)cn1)CC2` [Example 30, 2-((5-fluoro-4-methoxypyridin-2-yl)methyl)-5-((3-fluoroazetidin-1-yl)methyl)-7-((2-(methylamino)-1H-imidazol-1-yl)methyl)-3,4-dihydroisoquinolin-1(2H)-one], at WDR5, the IC50 was 10 to 1000 nM. Also, the AC50 (in test [1]; with MV4-11 cells) was 10 to 1000 nM throughout.

As for `CCOc1cc([C@H](C)N2CCc3c(CN4CC(F)C4)cc(Cn4ccnc4NC)cc3C2=O)ncc1C#N` [Example 28, (S)-4-ethoxy-6-(1-(5-((3-fluoroazetidin-1-yl)methyl)-7-((2-(methylamino)-1H-imidazol-1-yl)methyl)-1-oxo-3,4-dihydroisoquinolin-2(1H)-yl)ethyl)nicotinonitrile], the IC50 at WDR5 fell in the range of 10 to 1000 nM. Moreover, the AC50 (in test [1]; in the test with MV4-11 cells) was 10 to 1000 nM throughout.

Consider `CCOc1cc([C@H](C)N2CCc3c(cc(CCN(C)CC)cc3-c3ccn(C)c(=O)c3C(F)(F)F)C2=O)ncc1C#N` [Example 195, (S)-4-ethoxy-6-(1-(7-(2-(ethyl(methyl)amino)ethyl)-5-(1-methyl-2-oxo-3-(trifluoromethyl)-1,2-dihydropyridin-4-yl)-1-oxo-3,4-dihydroisoquinolin-2(1H)-yl)ethyl)nicotinonitrile], for which the IC50 on WDR5 is 10 to 1000 nM. Besides, the AC50 (in test [1]; with MV4-11 cells) was 10 to 1000 nM in each case.

For `CCOc1cc(CN2CCc3c(cc(CCN(C)CC)cc3-c3cc(C)ncc3C)C2=O)ncc1C#N` [Example 179, 6-((5-(2,5-dimethylpyridin-4-yl)-7-(2-(ethyl(methyl)amino)ethyl)-1-oxo-3,4-dihydroisoquinolin-2(1H)-yl)rnethyl)-4-ethoxynicotinonitrile], the IC50 at WDR5 is under 10 nM. The AC50 (in test [1]; in the test with MV4-11 cells) was 10 to 1000 nM throughout.

On to `CCOc1cc([C@H](C)N2CCc3c(cc(CCN(C)CC)cc3-c3cc4ocnc4nc3C)C2=O)ncc1C#N` [Example 181, (S)-4-ethoxy-6-(1-(7-(2-(ethyl(methyl)amino)ethyl)-5-(5-methyloxazolo[4,5-b]pyridin-6-yl)-1-oxo-3,4-dihydroisoquinolin-2(1H)-yl)ethyl)nicotinonitrile], for which the IC50 on WDR5 is under 10 nM. Further, the AC50 (in test [1]; in the test with MV4-11 cells) was 10 to 1000 nM in each case.

As for `CNc1nccn1Cc1cc2c(c(-c3cc(CO)cnc3Cl)c1)CCN(Cc1cccc(OC)c1)C2=O` [Example 52, 5-(2-chloro-5-(hydroxymethyl)pyridin-3-yl)-2-(3-methoxybenzyl)-7-((2-(methylamino)-1H-imidazol-1-yl)methyl)-3,4-dihydroisoquinolin-1(2H)-one], at WDR5, the IC50 was under 10 nM. Besides, the AC50 (in test [1]; in the test on MV4-11 cells) was 10 to 1000 nM throughout.

Regarding `CCOc1cc([C@H](C)N2CCc3c(CN4CCOCC4)cc(Cn4ccnc4NC)cc3C2=O)ncc1C#N` [Example 12, (S)-4-ethoxy-6-(1-(7-((2-(methylamino)-1H-imidazol-1-yl)methyl)-5-(morpholinomethyl)-1-oxo-3,4-dihydroisoquinolin-2(1H)-yl)ethyl)nicotinonitrile], on WDR5, the IC50 lay in the range of 10 to 1000 nM. Also, the AC50 (in test [1]; in the test with MV4-11 cells) was 10 to 1000 nM each time.

Take `CCOc1cc(C(C)N2CCc3c(cc(CCN(C)CC)cc3C(O)C(F)(F)F)C2=O)ncc1C#N` (stereo not drawn) [Example 259, 4-ethoxy-6-(1-(7-(2-(ethyl(methyl)amino)ethyl)-1-oxo-5-(2,2,2-trifluoro-1-hydroxyethyl)-3,4-dihydroisoquinolin-2(1H)-yl)ethyl)nicotinonitrile]: the IC50 on WDR5 was under 10 nM. The AC50 (in test [1]; with MV4-11 cells) was 10 to 1000 nM in each case.

In the case of `CCOc1cc([C@H](C)N2CCc3c(cc(CCN(C)CCO)cc3-c3cn(C)c(=O)cc3Cl)C2=O)ncc1C#N` [Example 238], the IC50 at WDR5 is under 10 nM. In addition, the AC50 (in test [1]; in the test on MV4-11 cells) was 10 to 1000 nM each time.

In the case of `CCOc1cc([C@H](C)N2CCc3c(cc(CCN(C)CC)cc3-c3cncn3C)C2=O)ncc1C#N` [Example 157, (S)-4-ethoxy-6-(1-(7-(2-(ethyl(methyl)amino)ethyl)-5-(1-methyl-1H-imidazol-5-yl)-1-oxo-3,4-dihydroisoquinolin-2(1H)-yl)ethyl)nicotinonitrile], the IC50 on WDR5 fell in the range of 10 to 1000 nM. The AC50 was in the range of 10 to 1000 nM in test [1] and 1000 to 25000 nM in the test with MV4-11 cells.

The record behind these values is patent US20220289732A1, “HETEROCYCLIC WDR5 INHIBITORS AS ANTI-CANCER COMPOUNDS” (NOVARTIS AG, priority 2019, published 2022).
